From PMC7307922 (Journal of Medicinal Chemistry, 2020)
Where a name gives a salt, the structure may show the parent alone. Read-outs that look alike come from different tables or passages of the source.

Target: T1, hFFA3 (Homo sapiens, UniProt O14843)
T1 sequence (O14843 1-346): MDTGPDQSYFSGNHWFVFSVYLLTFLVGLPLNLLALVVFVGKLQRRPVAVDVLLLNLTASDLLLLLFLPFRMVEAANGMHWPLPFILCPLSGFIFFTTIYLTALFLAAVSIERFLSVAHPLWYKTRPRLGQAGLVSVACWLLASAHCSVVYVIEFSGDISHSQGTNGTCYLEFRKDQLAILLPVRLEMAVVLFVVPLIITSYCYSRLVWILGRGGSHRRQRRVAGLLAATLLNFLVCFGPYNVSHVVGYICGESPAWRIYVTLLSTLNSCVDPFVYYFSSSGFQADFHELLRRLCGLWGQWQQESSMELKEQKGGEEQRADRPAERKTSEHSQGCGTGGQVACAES
Assay: cell-based
Conditions: for Emax: HEK293, read-out: cAMP Emax; for cAMP pEC50: compound alone, mean of ≥3 independent experiments ± standard error; for PAM pEC50: cAMP assay in the presence of 1 μM propionate; for allosteric effect on propionate response: cAMP assay together with propionate (56: 30 μM compound; 62, 63: 1 μM propionate)
Method: The ligands were initially screened in a human FFA3-dependent [^35S]GTPγS binding assay as this assay reflects receptor-mediated activation of Gi/o proteins and is known to generally correlate well with ligand affinity.[30] Analogues of particular interest were tested further in a cAMP inhibition assay as this is an important downstream effect of Gi-activation. […] It is furthermore performed in whole cells, is more downstream, includes G protein signal amplification, and therefore better reflects a more natural ligand–receptor response.
HEK293 Flp-In T-Rex cells stably transfected with FFA3-eYFP receptors were incubated overnight with doxycycline to induce expression, then harvested, and cryopreserved. On the day of each experiment, cells were thawed and resuspended in stimulation buffer. Assays were carried out using a 384-well plate format with 3000 cells/well using the CisBio cAMP GS dynamic kit as per manufacturer’s protocol. Compounds were tested for the ability to inhibit 0.3 μM forskolin-induced cAMP production after co-incubation for 1 h. Reactions were measured using a PHERAstar FS plate reader (BMGLabtech, Aylesbury, UK).

[1] = read-out: EC50 (cAMP assay), hFFA3

| Structure (SMILES) | Emax | cAMP pEC50 (hFFA3) | PAM pEC50 | other results |
| --- | --- | --- | --- | --- |
| CC1=C(C(=O)Nc2ccccc2C)C(c2cc3ccccc3o2)C2=C(CCCC2=O)N1 (stereo not shown) [Compound 45, 4-(Benzofuran-2-yl)-2-methyl-5-oxo-N-(o-tolyl)-1,4,5,6,7,8-hexahydroquinoline-3-carboxamide] | 98% | 6.00 ± 0.02 | – | – |
| CC1=C(C(=O)Nc2ccccc2C)C(CCc2ccccc2)C2=C(CCCC2=O)N1 (stereo not shown) [Compound 38, 2-Methyl-5-oxo-4-phenethyl-N-(o-tolyl)-1,4,5,6,7,8-hexahydroquinoline-3-carboxamide] | 97% | 4.21 ± 0.27 | 6.23 ± 0.03 | EC50: > 10 µM |
| CCC(C)C1C(C(=O)Nc2ccccc2C)=C(C)NC2=C1C(=O)CCC2 (stereo not shown) [Compound 30, 4-(sec-Butyl)-2-methyl-5-oxo-N-(o-tolyl)-1,4,5,6,7,8-hexahydroquinoline-3-carboxamide] | 110% | 5.00 ± 0.07 | 6.30 ± 0.04 | – |
| CCC1=C(C(=O)Nc2ccccc2C)C(c2ccco2)C2=C(CCCC2=O)N1 (stereo not shown) [Compound 22, 2-Ethyl-4-(furan-2-yl)-5-oxo-N-(o-tolyl)-1,4,5,6,7,8-hexahydroquinoline-3-carboxamide] | 95% | 5.47 ± 0.04 | – | – |
| CC1=C(C(=O)Nc2ccccc2C)C(C2CC2)C2=C(CCCC2=O)N1 (stereo not shown) [Compound 33, 4-Cyclopropyl-2-methyl-5-oxo-N-(o-tolyl)-1,4,5,6,7,8-hexahydroquinoline-3-carboxamide] | 102% | 6.22 ± 0.10 | – | EC50 [1]: 0.6 µM |
| CC1=C(C(=O)Nc2ccccc2C)C(CC(C)C)C(C(=O)c2ccccc2)=C(C)N1 (stereo not shown) [Compound 25, 5-Benzoyl-4-isobutyl-2,6-dimethyl-N-(o-tolyl)-1,4-dihydropyridine-3-carboxamide] | – | nr^c | nr^c | EC50: > 100 µM |
| CC1=C(C(=O)Nc2ccccc2C)C(c2ccc(Br)o2)C2=C(CCCC2=O)N1 (stereo not shown) [Compound 44, 4-(5-Bromofuran-2-yl)-2-methyl-5-oxo-N-(o-tolyl)-1,4,5,6,7,8-hexahydroquinoline-3-carboxamide] | 95% | 6.61 ± 0.02 | – | – |
| CC1=C(C(=O)Nc2ccccc2C)[C@@H](c2ccco2)C2=C(CCCC2=O)N1 [(S)-1] | – | – | – | EC50: 2 µM |
| CC1=C(C(=O)c2ccccc2)C(CC(C)C)C2=C(CCCC2=O)N1 (stereo not shown) [Compound 29, 3-Benzoyl-4-isobutyl-2-methyl-4,6,7,8-tetrahydroquinolin-5(1H)-one] | – | inactive alone and nr^c | >4 | allosteric effect on propionate response: PAM properties |
| CC1=C(C(=O)Nc2cc(Cl)ccc2Cl)C(CNC(=O)OC(C)(C)C)C2=C(CCCC2=O)N1 (stereo not shown) [Compound 55, tert-Butyl((3-((2,5-dichlorophenyl)carbamoyl)-2-methyl-5-oxo-1,4,5,6,7,8-hexahydroquinolin-4-yl)methyl)carbamate] | – | nr^d | – | – |
| CC1=C(C(=O)Nc2ccccc2C)C(/C=C/c2ccccc2)C2=C(CCCC2=O)N1 (stereo not shown) [Compound 39] | 113% | 4.34 ± 0.18 | 6.14 ± 0.07 | EC50: > 10 µM |
| CC1=C(C(=O)Nc2ccccc2C)C(C2CCCC2)C2=C(CCCC2=O)N1 (stereo not shown) [Compound 32, 4-Cyclopentyl-2-methyl-5-oxo-N-(o-tolyl)-1,4,5,6,7,8-hexahydroquinoline-3-carboxamide] | 102% | 6.54 ± 0.02 | – | increase in potency (cyclopentyl relative to cyclohexyl (31)): 20 fold; EC50 [1]: 0.288 µM |
| CC1=C(C(=O)Nc2cc(Cl)ccc2Cl)C(CCn2cccn2)C2=C(CCCC2=O)N1 (stereo not shown) [Compound 40, 4-(2-(1H-Pyrazol-1-yl)ethyl)-N-(2,5-dichlorophenyl)-2-methyl-5-oxo-1,4,5,6,7,8-hexahydroquinoline-3-carboxamide] | 96% | 4.95 ± 0.08 | – | EC50: > 10 µM |
| CC1=C(C(=O)Nc2ccccc2C)C(c2cccn2C)C2=C(CCCC2=O)N1 (stereo not shown) [Compound 41, 2-Methyl-4-(1-methyl-1H-pyrrol-2-yl)-5-oxo-N-(o-tolyl)-1,4,5,6,7,8-hexahydroquinoline-3-carboxamide] | 97% | 4.45 ± 0.09 | – | – |
| CCN(CC)CCOCC1C(C(=O)Nc2cc(Cl)ccc2Cl)=C(C)NC2=C1C(=O)CCC2 (stereo not shown) [Compound 54, N-(2,5-Dichlorophenyl)-4-((2-(diethylamino)ethoxy)methyl)-2-methyl-5-oxo-1,4,5,6,7,8-hexahydroquinoline-3-carboxamide] | – | nr^d | – | – |
| COC(=O)C1=C(C)NC(C)=C(C(=O)Nc2ccccc2C)C1CC(C)C (stereo not shown) [Compound 26, Methyl 4-isobutyl-2,6-dimethyl-5-(o-tolylcarbamoyl)-1,4-dihydropyridine-3-carboxylate] | – | nr^c | 6.16 ± 0.12 | EC50: > 100 µM; allosteric effect on propionate response: PAM |
| CC1=C(C(=O)Nc2cc(Cl)ccc2Cl)C(CC2CCN(C(=O)OC(C)(C)C)CC2)C2=C(CCCC2=O)N1 (stereo not shown) [Compound 56, tert-Butyl 4-((3-((2,5-dichlorophenyl)carbamoyl)-2-methyl-5-oxo-1,4,5,6,7,8-hexahydroquinolin-4-yl)methyl)piperidine-1-carboxylate] | – | nr^d | – | allosteric effect on propionate response: NAM |
| Cc1ccccc1NC(=O)C1=C(c2ccccc2)NC2=C(C(=O)CCC2)C1c1ccco1 (stereo not shown) [Compound 23, 4-(Furan-2-yl)-5-oxo-2-phenyl-N-(o-tolyl)-1,4,5,6,7,8-hexahydroquinoline-3-carboxamide] | – | completely inactive and nr^c | – | – |
| CCC1C(C(=O)Nc2ccccc2C)=C(C)NC2=C1C(=O)CCC2 (stereo not shown) [Compound 34, 4-Ethyl-2-methyl-5-oxo-N-(o-tolyl)-1,4,5,6,7,8-hexahydroquinoline-3-carboxamide] | 106% | 5.38 ± 0.13 | 6.45 ± 0.16 | – |
| CC1=C(C(=O)Nc2ccccc2C)C(c2csc3ccccc23)C2=C(CCCC2=O)N1 (stereo not shown) [Compound 46, 4-(Benzo[b]thiophen-3-yl)-2-methyl-5-oxo-N-(o-tolyl)-1,4,5,6,7,8-hexahydroquinoline-3-carboxamide] | 95% | 5.11 ± 0.04 | – | – |
| CC1=C(C(=O)Nc2ccccc2C)C(C2CCCCC2)C2=C(CCCC2=O)N1 (stereo not shown) [Compound 31, 4-Cyclohexyl-2-methyl-5-oxo-N-(o-tolyl)-1,4,5,6,7,8-hexahydroquinoline-3-carboxamide] | 91% | 5.26 ± 0.10 | – | – |
| COC(=O)C1=C(C)NC2=C(C(=O)CCC2)C1CC(C)C (stereo not shown) [Compound 28, Methyl 4-isobutyl-2-methyl-5-oxo-1,4,5,6,7,8-hexahydroquinoline-3-carboxylate] | – | inactive alone and nr^c | 6.21 ± 0.10 | allosteric effect on propionate response: PAM properties |
| CC1=C(C(=O)Nc2ccccc2C)C(c2cc(C)cs2)C2=C(CCCC2=O)N1 (stereo not shown) [Compound 43, 2-Methyl-4-(4-methylthiophen-2-yl)-5-oxo-N-(o-tolyl)-1,4,5,6,7,8-hexahydroquinoline-3-carboxamide] | 102% | 5.86 ± 0.04 | – | – |
| CC1=C(C(=O)Nc2ccccc2C)C(c2ccc(C)o2)C2=C(CCCC2=O)N1 (stereo not shown) [Compound 42, 2-Methyl-4-(5-methylfuran-2-yl)-5-oxo-N-(o-tolyl)-1,4,5,6,7,8-hexahydroquinoline-3-carboxamide] | 100% | 5.96 ± 0.03 | – | – |
| CCCCC1C(C(=O)Nc2ccccc2C)=C(C)NC2=C1C(=O)CCC2 (stereo not shown) [Compound 36, 2-Methyl-5-oxo-4-butyl-N-(o-tolyl)-1,4,5,6,7,8-hexahydroquinoline-3-carboxamide] | – | 5.86 ± 0.03 | 6.58 ± 0.06 | – |
| CCCCCC1C(C(=O)Nc2ccccc2C)=C(C)NC2=C1C(=O)CCC2 (stereo not shown) [Compound 37, 2-Methyl-5-oxo-4-pentyl-N-(o-tolyl)-1,4,5,6,7,8-hexahydroquinoline-3-carboxamide] | – | 5.60 ± 0.17 | 6.40 ± 0.10 | – |
| CC1=C(C(=O)Nc2cc(Cl)ccc2Cl)C(CN)C2=C(CCCC2=O)N1 (stereo not shown) [Compound 52, 4-(Aminomethyl)-N-(2,5-dichlorophenyl)-2-methyl-5-oxo-1,4,5,6,7,8-hexahydroquinoline-3-carboxamide Hydrochloride] | – | nr^d | – | – |
| CC1=C(C(=O)Nc2cc(Cl)ccc2Cl)C(CC2CCNCC2)C2=C(CCCC2=O)N1 (stereo not shown) [Compound 53, N-(2,5-Dichlorophenyl)-2-methyl-5-oxo-4-(piperidin-4-ylmethyl)-1,4,5,6,7,8-hexahydroquinoline-3-carboxamide Hydrochloride] | – | nr^d | – | – |
| CC1=C(C#N)C(CC(C)C)C(C(=O)Nc2ccccc2C)=C(C)N1 (stereo not shown) [Compound 27, 5-Cyano-4-isobutyl-2,6-dimethyl-N-(o-tolyl)-1,4-dihydropyridine-3-carboxamide] | – | 3.99 ± 0.01 | 6.42 ± 0.09 | – |
